System: KCL22 cells
Assay: Cytotoxicity, resazurin assay, KCL22
Type: cell-based, human
Conditions: Homo sapiens, KCL-22; 72 h, resazurin, GI50 ± SD
Procedure: (§1) The development of the KCL22 subclone B8 (T315I, 100%) has been previously detailed. All cell lines were maintained in a humidified incubator at 37 °C and 5% CO2, following the manufacturer’s instructions, in the appropriate medium supplemented with 10% foetal bovine serum, penicillin (100 IU/mL), streptomycin (100 µg/mL), and glutamine (4 mM).
(§2) Cytotoxicity was assessed utilizing resazurin, an indicator dyes that measures oxidation-reduction reactions in the mitochondria of living cells. Cells were seeded into 96-well plates and treated with the compounds for 72 h (six different doses of each compound, in triplicate).

| Structure (SMILES) | GI50 [nM] |
| --- | --- |
| Cc1ccc(NC(=O)c2ccc(CN3CCN(C)CC3)cc2)cc1Nc1nccc(-c2cccnc2)n1 [imatinib, reference compound] | 9260 ± 1000 |

System: K562 cells
Assay: Cytotoxicity, resazurin assay, K562
Type: cell-based, human
Conditions: Homo sapiens, K562; 72 h, resazurin, GI50 ± SD
Procedure: as §1, §2

| Structure (SMILES) | GI50 [nM] |
| --- | --- |
| Cc1ccc(NC(=O)c2ccc(CN3CCN(C)CC3)cc2)cc1Nc1nccc(-c2cccnc2)n1 [imatinib, reference compound] | 230 ± 10 |

System: Bcr-Abl
Assay: not given
Conditions: 58-purine 3D-QSAR database, Table S3; cited from earlier work

| Structure (SMILES) | pIC50 Exp |
| --- | --- |
| CN1CCN(c2ccc(Nc3nc(Nc4cccc(F)c4)c4ncn(CC5CC5)c4n3)cc2)CC1 [Compound 3] | 7.398 |
| CN1CCN(c2ccc(Nc3nc(Nc4ccc(F)c(F)c4)c4ncn(CC5CC5)c4n3)cc2)CC1 [Compound 4] | 7.398 |
| COc1cc(Nc2nc(Nc3ccc(N4CCN(C)CC4)cc3)nc3c2ncn3CC2CC2)c(OC)cc1Cl [Compound 5] | 4.444 |
| COc1cc(Cl)ccc1Nc1nc(Nc2ccc(N3CCN(C)CC3)cc2)nc2c1ncn2CC1CC1 [Compound 6] | 6.097 |
| CN1CCN(c2ccc(Nc3nc(Nc4ccccc4)c4ncn(CC5CC5)c4n3)cc2F)CC1 [Compound 7] | 6.237 |
| CN1CCN(c2ccc(Nc3nc(Nc4ccc(F)cc4)c4ncn(CC5CC5)c4n3)cc2F)CC1 [Compound 8] | 5.971 |
| CN1CCN(c2ccc(Nc3nc(Nc4cccc(F)c4)c4ncn(CC5CC5)c4n3)cc2F)CC1 [Compound 9] | 6.222 |
| CN1CCN(c2ccc(Nc3nc(Nc4ccc(F)c(F)c4)c4ncn(CC5CC5)c4n3)cc2F)CC1 [Compound 10] | 6.237 |
| COc1ccc(Nc2nc(Nc3ccc(N4CCN(C)CC4)c(F)c3)nc3c2ncn3CC2CC2)cc1 [Compound 11] | 6.469 |
| COc1cc(Cl)ccc1Nc1nc(Nc2ccc(N3CCN(C)CC3)c(F)c2)nc2c1ncn2CC1CC1 [Compound 13] | 5.074 |
| CN1CCN(c2ccc(Nc3nc(Nc4ccccc4F)c4ncn(CC5CC5)c4n3)cc2)CC1 [Compound 14] | 5.378 |
| CN1CCN(c2ccc(Nc3nc(Nc4cccc(C#N)c4)c4ncn(CC5CC5)c4n3)cc2)CC1 [Compound 15] | 7.155 |
| Cc1cccc(Nc2nc(Nc3ccc(N4CCN(C)CC4)cc3)nc3c2ncn3CC2CC2)c1 [Compound 16] | 7.000 |
| CN1CCN(c2ccc(Nc3nc(Nc4cccc(Cl)c4)c4ncn(CC5CC5)c4n3)cc2)CC1 [Compound 17] | 6.921 |
| CN1CCN(c2ccc(Nc3nc(Nc4cccc(C(F)(F)F)c4)c4ncn(CC5CC5)c4n3)cc2)CC1 [Compound 18] | 5.75 |
| CN1CCN(c2ccc(Nc3nc(Nc4cccc(OC(F)(F)F)c4)c4ncn(CC5CC5)c4n3)cc2)CC1 [Compound 19] | 5.939 |
| CN1CCN(c2ccc(Nc3nc(Nc4cccc([N+](=O)[O-])c4)c4ncn(CC5CC5)c4n3)cc2)CC1 [Compound 20] | 6.770 |
| CN1CCN(c2ccc(Nc3nc(Nc4ccc(OC(F)(F)F)cc4)c4ncn(CC5CC5)c4n3)cc2)CC1 [Compound 21] | 6.409 |
| CN1CCN(c2ccc(Nc3nc(Nc4ccc([N+](=O)[O-])cc4)c4ncn(CC5CC5)c4n3)cc2)CC1 [Compound 22] | 6.886 |
| CN1CCN(c2ccc(Nc3nc(Nc4ccc(C#N)cc4)c4ncn(CC5CC5)c4n3)cc2)CC1 [Compound 23] | 7.000 |
| COC(=O)c1ccc(Nc2nc(Nc3ccc(N4CCN(C)CC4)cc3)nc3c2ncn3CC2CC2)cc1 [Compound 24] | 7.398 |
| CN1CCN(c2ccc(Nc3nc(Nc4ccc(F)c(Cl)c4)c4ncn(CC5CC5)c4n3)cc2)CC1 [Compound 25] | 6.569 |
| CN1CCN(c2ccc(Nc3nc(Nc4ccc(Cl)c(Cl)c4)c4ncn(CC5CC5)c4n3)cc2)CC1 [Compound 26] | 7.155 |
| CN1CCN(c2ccc(Nc3nc(Nc4ccc(Cl)c(F)c4)c4ncn(CC5CC5)c4n3)cc2)CC1 [Compound 27] | 6.699 |
| CN1CCN(c2ccc(Nc3nc(Nc4ccc(OC(F)(F)F)c([N+](=O)[O-])c4)c4ncn(CC5CC5)c4n3)cc2)CC1 [Compound 28] | 6.357 |
| CN1CCN(C(=O)c2ccc(Nc3nc(Nc4ccccc4)c4ncn(CC5CC5)c4n3)cc2)CC1 [Compound 29] | 5.917 |

| Structure (SMILES) | pIC50 Exp |
| --- | --- |
| CN1CCN(C(=O)c2ccc(Nc3nc(Nc4cccc(F)c4)c4ncn(CC5CC5)c4n3)cc2)CC1 [Compound 30] | 6.244 |
| CN1CCN(C(=O)c2ccc(Nc3nc(Nc4ccc(F)c(F)c4)c4ncn(CC5CC5)c4n3)cc2)CC1 [Compound 31] | 6.027 |
| CCCCCCCCn1cnc2c(Nc3ccc(F)c(F)c3)nc(Nc3ccc(N4CCN(C)CC4)cc3)nc21 [Compound 32] | 4.063 |
| CC(C)CCn1cnc2c(Nc3cccc(F)c3)nc(Nc3ccc(N4CCN(C)CC4)cc3)nc21 [Compound 34] | 4.301 |
| CCCCCn1cnc2c(Nc3ccccc3)nc(Nc3ccc(N4CCN(C)CC4)cc3)nc21 [Compound 35] | 5.910 |
| CC(C)CCn1cnc2c(Nc3ccccc3)nc(Nc3ccc(N4CCN(C)CC4)cc3)nc21 [Compound 36] | 5.750 |
| CCCCCn1cnc2c(Nc3ccc(F)c(F)c3)nc(Nc3ccc(N4CCN(C)CC4)cc3)nc21 [Compound 37] | 5.866 |
| CCCCCCn1cnc2c(Nc3ccccc3)nc(Nc3ccc(N4CCN(C)CC4)cc3)nc21 [Compound 38] | 5.008 |
| CCCCCCn1cnc2c(Nc3ccc(F)c(F)c3)nc(Nc3ccc(N4CCN(C)CC4)cc3)nc21 [Compound 40] | 4.469 |
| CCCCCn1cnc2c(Nc3cccc(F)c3)nc(Nc3ccc(N4CCN(C)CC4)cc3)nc21 [Compound 42] | 6.187 |
| CC(C)CCn1cnc2c(Nc3ccc(F)c(F)c3)nc(Nc3ccc(N4CCN(C)CC4)cc3)nc21 [Compound 43] | 5.642 |
| CN1CCN(c2ccc(Nc3nc(Nc4ccccc4)c4ccn(CC5CC5)c4n3)cc2)CC1 [Compound 44] | 4.206 |
| CN1CCN(Cc2ccc(Nc3nc(Nc4cccc(F)c4)c4ncn(CC5CC5)c4n3)cc2)CC1 [Compound 45] | 6.744 |
| CN1CCN(c2ccc(Nc3nc(N)c4ncn(CC5CC5)c4n3)cc2)CC1 [Compound 46] | 5.403 |
| CN1CCN(c2ccc(Nc3nc(NC4CCCCC4)c4ncn(CC5CC5)c4n3)cc2)CC1 [Compound 47] | 4.956 |
| CN1CCN(Cc2ccc(Nc3nc(Nc4ccc(F)c(F)c4)c4ncn(CC5CC5)c4n3)cc2)CC1 [Compound 48] | 6.649 |
| CN1CCN(c2ccc(Nc3nc(NCc4ccccc4)c4ncn(CC5CC5)c4n3)cc2)CC1 [Compound 49] | 6.076 |
| OCCN1CCN(c2ccc(Nc3nc(Nc4ccc(F)c(F)c4)c4ncn(CC5CC5)c4n3)cc2)CC1 [Compound 52] | 7.703 |
| CC(C)CCn1cnc2c(Nc3ccccc3)nc(Nc3ccc(N4CCN(CCO)CC4)cc3)nc21 [Compound 53] | 5.907 |
| CC(C)CCn1cnc2c(Nc3cccc(F)c3)nc(Nc3ccc(N4CCN(CCO)CC4)cc3)nc21 [Compound 54] | 6.886 |
| CC(C)CCn1cnc2c(Nc3ccc(F)c(F)c3)nc(Nc3ccc(N4CCN(CCO)CC4)cc3)nc21 [Compound 55] | 5.754 |
| CCCCCCn1cnc2c(Nc3ccccc3)nc(Nc3ccc(N4CCN(CCO)CC4)cc3)nc21 [Compound 56] | 6.081 |
| CCCCCCn1cnc2c(Nc3cccc(F)c3)nc(Nc3ccc(N4CCN(CCO)CC4)cc3)nc21 [Compound 57] | 6.174 |
| CCCCCCn1cnc2c(Nc3ccc(F)c(F)c3)nc(Nc3ccc(N4CCN(CCO)CC4)cc3)nc21 [Compound 58] | 5.775 |
| OCCN1CCN(c2ccc(Nc3nc(Nc4cccc(F)c4)c4ncn(CC5CC5)c4n3)cc2)CC1 [VII] | 7.833 |

Same assay, conditions: earlier purines of the group; cited from earlier work

| Structure (SMILES) | IC50 [nM] |
| --- | --- |
| CCCCCCCCn1cnc2c(Nc3ccc(F)c(F)c3)nc(Nc3ccc(N4CCN(C)CC4)cc3)nc21 [Compound 32] | 86500 |
| OCCN1CCN(c2ccc(Nc3nc(Nc4cccc(F)c4)c4ncn(CC5CC5)c4n3)cc2)CC1 [VII] | 15 |
| CN1CCN(c2ccc(Nc3nc(Nc4cccc(C#N)c4)c4ncn(CC5CC5)c4n3)cc2)CC1 [X] | 70 |

System: HEK-293T cells
Assay: Cytotoxicity, resazurin assay, non-neoplastic HEK-293T
Type: cell-based
Conditions: Homo sapiens, 72 h, GI50 ± SD
Procedure: as §1, with “The human cell line KCL22 was sourced from the German Collection of Microorganisms and Cell Cultures, while K562 and HEK-293T cells were obtained from the European Collection of Authenticated Cell Cultures. The” for “The”
Cytotoxicity was assessed utilizing resazurin, an indicator dyes that measures oxidation-reduction reactions in the mitochondria of living cells. Cells were seeded into 96-well plates and treated with the compounds for 72 h (six different doses of each compound, in triplicate). After treatment, a solution of resazurin (Merck, Prague, Czech Republic) was added for 4 h, and the fluorescence of resorufin corresponding to viable cell quantity was measured at 544 nm/590 nm (excitation/emission) using a Fluoroskan Ascent microplate reader (LabSystems, Helsinki, Finland).

| Structure (SMILES) | GI50 [nM] |
| --- | --- |
| Cc1ccc(NC(=O)c2ccc(CN3CCN(C)CC3)cc2)cc1Nc1nccc(-c2cccnc2)n1 [imatinib, reference compound] | > 10000 |
